{"source": "patent US20220313629A1", "about": "“TRANSIENT POTENTIAL MELASTATIN 8 (TRPM8) ANTAGONISTS AND RELATED METHODS” (MARSHALL UNIVERSITY RESEARCH CORPORATION, priority 2019, published 2022)", "key": {"[1]": {"biological_target": "T1, TRPM8 (Homo sapiens, UniProt Q7Z2W7)", "conditions": "cited from earlier work"}, "[2]": {"biological_target": "T2, human TRPA1 (Homo sapiens, UniProt O75762)", "T2 sequence (O75762 whole entry)": "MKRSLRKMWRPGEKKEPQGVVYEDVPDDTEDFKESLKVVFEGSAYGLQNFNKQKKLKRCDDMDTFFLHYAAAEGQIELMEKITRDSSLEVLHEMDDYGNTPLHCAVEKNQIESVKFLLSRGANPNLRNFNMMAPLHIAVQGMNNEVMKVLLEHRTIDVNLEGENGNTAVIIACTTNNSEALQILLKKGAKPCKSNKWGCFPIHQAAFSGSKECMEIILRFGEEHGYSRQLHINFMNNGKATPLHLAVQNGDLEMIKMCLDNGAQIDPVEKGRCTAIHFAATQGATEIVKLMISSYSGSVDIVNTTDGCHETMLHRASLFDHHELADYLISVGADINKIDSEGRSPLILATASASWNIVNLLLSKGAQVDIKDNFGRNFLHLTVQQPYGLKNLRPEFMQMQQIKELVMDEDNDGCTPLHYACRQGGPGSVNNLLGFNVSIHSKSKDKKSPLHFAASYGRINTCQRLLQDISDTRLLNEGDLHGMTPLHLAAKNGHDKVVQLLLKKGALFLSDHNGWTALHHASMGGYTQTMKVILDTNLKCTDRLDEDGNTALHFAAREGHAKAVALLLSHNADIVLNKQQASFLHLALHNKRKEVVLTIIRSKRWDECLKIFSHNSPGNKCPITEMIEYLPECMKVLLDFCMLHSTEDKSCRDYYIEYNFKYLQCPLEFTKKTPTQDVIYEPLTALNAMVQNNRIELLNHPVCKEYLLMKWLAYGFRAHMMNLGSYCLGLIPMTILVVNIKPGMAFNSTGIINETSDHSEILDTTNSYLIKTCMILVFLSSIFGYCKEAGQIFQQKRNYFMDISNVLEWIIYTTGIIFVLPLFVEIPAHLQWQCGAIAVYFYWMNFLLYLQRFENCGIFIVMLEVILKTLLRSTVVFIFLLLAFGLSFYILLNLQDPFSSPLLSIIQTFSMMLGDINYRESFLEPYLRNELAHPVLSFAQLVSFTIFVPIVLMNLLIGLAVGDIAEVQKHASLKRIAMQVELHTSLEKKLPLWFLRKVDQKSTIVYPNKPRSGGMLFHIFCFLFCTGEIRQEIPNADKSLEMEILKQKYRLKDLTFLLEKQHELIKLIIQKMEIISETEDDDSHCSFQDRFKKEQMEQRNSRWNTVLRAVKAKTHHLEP", "experiment": "TRPA1 agonist and antagonist Ca2+ flux assay (FLIPR, Fluo-8) in HEK293 cells stably expressing human TRPA1", "format": "cell-based", "conditions": "for % Activation Mean ± SEM (n = 5), TRPA1 antagonist data (Percentage Inhibition Normalized to EC80 Control): vs EC80 of AITC; for hTRPA1 % Activation (n = 3-5): normalized to Emax of AITC (300 μM)"}, "[3]": {"biological_target": "T2, human TRPA1", "conditions": "vs. the effect of 80 μM AITC; read-out: IC50 at TRPA1 reported by Klionsky and colleagues; cited from earlier work"}, "[4]": {"biological_target": "T1, TRPM8", "experiment": "TRPM8 agonist (intrinsic) activity by Fura-2 Ca2+ imaging in HEK-293 cells stably expressing human TRPM8", "format": "cell-based", "conditions": "HEK-293 cells stably expressing hTRPM8; read-out: EC50 (agonist-evoked Ca2+ influx at hTRPM8)"}, "[5]": {"biological_target": "T1, TRPM8", "conditions": "different cell type (CHO vs HEK) or species (human versus mouse); read-out: previously-reported EC50 values; cited from earlier work"}, "[6]": {"tested_on": "rat and human TRPM8", "conditions": "literature; read-out: IC50 values against menthol, icilin and cold activation at rat and human TRPM8; cited from earlier work"}, "[7]": {"experiment": "Stability in liver microsomes", "format": "in vitro ADME", "conditions": "mouse liver microsomes; CLint = k/P", "method": "Stability in liver microsomes. Male CD-1 mouse liver microsomes (Lot#1710069) were purchased from XenoTech. The reaction mixture, minus NADPH, was prepared as described below. Compound 14 was added into the reaction mixture at a final concentration of 1 μM. The control compound, testosterone, was run simultaneously with Compound 14 in a separate reaction. An aliquot of the reaction mixture (without cofactor) was equilibrated in a shaking water bath at 37° C. for 3 minutes. The reaction was initiated by the addition of the cofactor, and the mixture was incubated in a shaking water bath at 37° C. Aliquots (100 μL) were withdrawn at 0, 10, 20, 30, and 60 minutes. Compound 14 and testosterone samples were immediately combined with 400 μL of ice-cold 50/50 acetonitrile (ACN)/H2O containing 0.1% formic acid and internal standard to terminate the reaction. The samples were then mixed and centrifuged to precipitate proteins. All samples were assayed by LC-MS/MS using electrospray ionization. […] are compared to the PARR at time 0 to determine the percent remaining at each time point. Half-lives and intrinsic clearance were calculated using GraphPad software, fitting to a single-phase exponential decay equation.\nIn vitro metabolic stability. Compound 14 was evaluated for metabolic stability in mouse liver microsomes by Absorption Systems (Exton, Pa.), by determining the percent remaining at 0, 10, 20, 30 and 60 minutes when incubated with mouse liver microsomes in the presence of NADPH. The half-life (t1/2) and in vitro intrinsic clearance (CLint) of Compound 14 was calculated, in addition to the control (testosterone)."}, "[8]": {"biological_target": "T1, TRPM8", "experiment": "TRPM8 antagonist activity by Fura-2 Ca2+ imaging in HEK-293 cells stably expressing human TRPM8", "format": "cell-based", "conditions": "for IC50: read-out: Functional Activity hTRPM8 potency IC50 ± SEM"}, "[9]": {"biological_target": "human TRPV1 (Homo sapiens, UniProt Q8NER1)", "sequence (Q8NER1 whole entry)": "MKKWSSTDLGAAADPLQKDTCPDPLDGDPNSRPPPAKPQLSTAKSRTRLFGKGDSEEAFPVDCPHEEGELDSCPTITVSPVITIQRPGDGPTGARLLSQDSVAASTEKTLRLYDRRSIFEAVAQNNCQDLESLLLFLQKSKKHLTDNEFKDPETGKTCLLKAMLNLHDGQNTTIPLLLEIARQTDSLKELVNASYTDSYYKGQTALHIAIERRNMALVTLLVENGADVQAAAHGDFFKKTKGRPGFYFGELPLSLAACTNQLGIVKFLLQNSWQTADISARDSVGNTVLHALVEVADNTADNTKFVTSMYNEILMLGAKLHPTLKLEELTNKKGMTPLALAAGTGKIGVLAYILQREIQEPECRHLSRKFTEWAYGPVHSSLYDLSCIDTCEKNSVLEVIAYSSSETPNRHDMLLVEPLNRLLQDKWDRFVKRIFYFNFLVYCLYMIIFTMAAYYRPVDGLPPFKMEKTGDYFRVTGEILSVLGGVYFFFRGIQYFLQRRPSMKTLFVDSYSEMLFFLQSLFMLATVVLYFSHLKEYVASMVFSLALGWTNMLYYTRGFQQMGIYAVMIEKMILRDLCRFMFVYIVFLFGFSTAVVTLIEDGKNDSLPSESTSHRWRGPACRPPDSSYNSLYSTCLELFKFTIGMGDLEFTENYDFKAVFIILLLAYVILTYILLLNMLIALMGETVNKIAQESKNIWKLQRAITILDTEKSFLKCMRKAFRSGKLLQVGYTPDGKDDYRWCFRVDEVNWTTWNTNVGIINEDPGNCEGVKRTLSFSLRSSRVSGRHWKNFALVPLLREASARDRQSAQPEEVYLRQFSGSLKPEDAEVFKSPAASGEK", "experiment": "TRPV1 agonist and antagonist Ca2+ flux assay (FLIPR, Fluo-8) in HEK293 cells stably expressing human TRPV1", "format": "cell-based", "conditions": "for hTRPV1 % Activation (n = 3): normalized to Emax of capsaicin (3 μM)"}, "[10]": {"biological_target": "T1, TRPM8", "conditions": "literature value; read-out: IC50 in whole-cell patch-clamp assay (reported); cited from earlier work"}, "[11]": {"conditions": "inhibition of icilin (500 nM)-evoked Ca2+ entry, HEK-293 cells stably expressing hTRPM8, mean ± SEM, three independent experiments"}, "[12]": {"conditions": "HEK293, read-out: hTRPA1 % Inhibition (n = 3)"}, "[13]": {"conditions": "at concentrations 13- to 25-fold higher than hTRPM8 IC50"}, "[14]": {"conditions": "HEK293, read-out: hTRPV1 % Inhibition (n = 3)"}}, "note": "Values joined by “and” are separate entries in the source; they are usually repeats but may differ in a detail not shown here. Equal values may be shown once. Read-outs that look alike come from different tables or passages of the source."}
{"smiles": "C[C@H](c1ccc(F)cc1)N(Cc1cccc(C(=O)O)c1)C(=O)c1cnc2ccccc2c1", "note": "[PF-05105679]", "values": [{"measurement": "IC50", "setting": "[1]; literature, read-out: IC50, inhibition of WS-12-mediated activation at human TRPM8", "result": "181 ± 7.21", "unit": "nM"}, {"measurement": "IC50", "setting": "[1]; literature, read-out: IC50, inhibition of voltage-mediated activation at human TRPM8", "result": "103 ± 29.4", "unit": "nM"}, {"measurement": "IC50", "setting": "[1]; literature, read-out: hTRPM8 IC50 (reported Ca2+ flux activity)", "result": 181, "unit": "nM"}]}
{"smiles": "N.N.N.N.N.N.N.N.N.N.N.N.N.N.[Cl-].[Cl-].[Cl-].[Cl-].[Cl-].[Cl-].[O-2].[O-2].[Ru+3].[Ru+3].[Ru+4]", "note": "[Ruthenium Red, reference compound]", "values": [{"measurement": "% Activation Mean ± SEM (n = 5), TRPA1 antagonist data (Percentage Inhibition Normalized to EC80 Control)", "setting": "[2]; 3 nM", "result": "−6.0 ± 1.2", "unit": "%"}, {"measurement": "% Activation Mean ± SEM (n = 5), TRPA1 antagonist data (Percentage Inhibition Normalized to EC80 Control)", "setting": "[2]; 10 nM", "result": "1.9 ± 2.4", "unit": "%"}, {"measurement": "% Activation Mean ± SEM (n = 5), TRPA1 antagonist data (Percentage Inhibition Normalized to EC80 Control)", "setting": "[2]; 30 nM", "result": "5.8 ± 4.6", "unit": "%"}, {"measurement": "% Activation Mean ± SEM (n = 5), TRPA1 antagonist data (Percentage Inhibition Normalized to EC80 Control)", "setting": "[2]; 100 nM", "result": "15.7 ± 9.8", "unit": "%"}, {"measurement": "% Activation Mean ± SEM (n = 5), TRPA1 antagonist data (Percentage Inhibition Normalized to EC80 Control)", "setting": "[2]; 300 nM", "result": "91.1 ± 2.9", "unit": "%"}, {"measurement": "% Activation Mean ± SEM (n = 5), TRPA1 antagonist data (Percentage Inhibition Normalized to EC80 Control)", "setting": "[2]; 1,000 nM", "result": "100.9 ± 0.1", "unit": "%"}, {"measurement": "% Activation Mean ± SEM (n = 5), TRPA1 antagonist data (Percentage Inhibition Normalized to EC80 Control)", "setting": "[2]; 3,000 nM", "result": "100.9 ± 0.7", "unit": "%"}, {"measurement": "% Activation Mean ± SEM (n = 5), TRPA1 antagonist data (Percentage Inhibition Normalized to EC80 Control)", "setting": "[2]; 10,000 nM", "result": "100.8 ± 0.3", "unit": "%"}, {"measurement": "IC50", "setting": "[2]; AITC 10 μM, read-out: IC50, blockade of AITC-activated hTRPA1 responses", "result": "162 ± 33", "unit": "nM"}, {"measurement": "IC50", "setting": "[3]", "result": "29 ± 6", "unit": "nM"}]}
{"smiles": "O=C1NC(c2cccc([N+](=O)[O-])c2)=CCN1c1ccccc1O", "note": "[icilin, 3-(2-hydroxyphenyl)-6-(3-nitrophenyl)-3,4-dihydropyrimidin-2(1H)-one]", "values": [{"measurement": "EC50", "setting": "[4]", "result": "~70 nM and 74 nM"}, {"measurement": "EC50", "setting": "[5]", "result": "120 to 200", "unit": "nM"}]}
{"smiles": "C[C@H](NC(=O)N1CCc2cccnc2[C@H]1c1ccc(C(F)(F)F)cc1)C(F)(F)F", "note": "[AMG2850]", "values": [{"measurement": "IC50", "setting": "[6]", "result": "7 to 156", "unit": "nM"}]}
{"smiles": "C[C@]12CC[C@H]3[C@@H](CCC4=CC(=O)CC[C@@]43C)[C@@H]1CC[C@@H]2O", "note": "[Testosterone, reference compound]", "values": [{"measurement": "CLint (mL/min/mg protein)", "setting": "[7]", "result": 0.372, "unit": "mL/min/mg protein"}]}
{"smiles": "O=C(NC12CC3CC(CC(C3)C1)C2)c1ccc(-c2ccccc2)cc1", "note": "[Compound 15, N-(adamantan-1-yl)-[1,1′-biphenyl]-4-carboxamide]", "values": [{"measurement": "IC50", "setting": "[8]; [11]", "result": "16 ± 1", "unit": "nM"}, {"measurement": "inhibition at 0.3 µM", "setting": "[2]; [12]", "result": "-7 ± 7", "unit": "%"}, {"measurement": "effect on hTRPA1-mediated responses (intrinsic and antagonist activity)", "setting": "[2]; [13]", "result": "do not affect"}, {"measurement": "hTRPA1 % Activation (n = 3-5)", "setting": "[2]; tested at 30 nM", "result": "−2.6 ± 0.5", "unit": "%"}, {"measurement": "hTRPA1 % Activation (n = 3-5)", "setting": "[2]; tested at 300 nM", "result": "−1.5 ± 0.4", "unit": "%"}, {"measurement": "inhibition at 0.03 µM", "setting": "[9]; [14]", "result": "-6 ± 5", "unit": "%"}, {"measurement": "inhibition at 0.3 µM", "setting": "[9]; [14]", "result": "3 ± 4", "unit": "%"}, {"measurement": "effect on hTRPV1-mediated responses (intrinsic and antagonist activity)", "setting": "[9]; [13]", "result": "do not affect"}, {"measurement": "hTRPV1 % Activation (n = 3)", "setting": "[9]; tested at 30 nM", "result": "1.0 ± 0.2", "unit": "%"}, {"measurement": "hTRPV1 % Activation (n = 3)", "setting": "[9]; tested at 300 nM", "result": "1 ± 2", "unit": "%"}]}
{"smiles": "COc1cc(CN(CCN)C(=O)OC(C)c2ccccc2)ccc1OCc1ccccc1", "note": "(centres unmarked) [PBMC]", "values": [{"measurement": "IC50", "setting": "[10]", "result": "0.4 to 0.6", "unit": "nM"}]}
{"smiles": "O=C(O)c1ccc(S(=O)(=O)N(Cc2ccc(OC(F)(F)F)cc2)c2ncc(C(F)(F)F)cc2Cl)cc1", "note": "[RQ-00203078, reference compound]", "values": [{"measurement": "IC50", "setting": "[8]; [11]", "result": "2.96 nM and 3 nM"}, {"measurement": "IC50", "setting": "[1]; HEK cells expressing hTRPM8, read-out: IC50 previously reported against 30 μM menthol-evoked Ca2+ influx", "result": "~8", "unit": "nM"}, {"measurement": "reported potency at hTRPM8", "setting": "[1]; literature", "result": "< 10", "unit": "nM"}]}
{"smiles": "O=C(NC1CCc2ccccc2C1)c1ccc(-c2ccccc2)cc1", "note": "(centres unmarked) [Compound 11, N-(1,2,3,4-tetrahydronaphthalen-2-yl)-[1,1′-biphenyl]-4-carboxamide]", "values": [{"measurement": "decrease of hTRPM8 potency (vs. Compound 10)", "setting": "[8]; icilin Ca2+ assay", "result": 9, "unit": "fold"}, {"measurement": "IC50", "setting": "[8]", "result": "52 ± 1", "unit": "nM"}, {"measurement": "inhibition at 0.1 µM", "setting": "[2]; [12]", "result": "3 ± 6", "unit": "%"}, {"measurement": "inhibition at 1 µM", "setting": "[2]; [12]", "result": "4 ± 1", "unit": "%"}, {"measurement": "hTRPA1 % Activation (n = 3-5)", "setting": "[2]; tested at 100 nM", "result": "−0.1 ± 0.5", "unit": "%"}, {"measurement": "hTRPA1 % Activation (n = 3-5)", "setting": "[2]; tested at 1 μM", "result": "−0.8 ± 0.6", "unit": "%"}, {"measurement": "inhibition at 0.1 µM", "setting": "[9]; [14]", "result": "-3.1 ± 0.6", "unit": "%"}, {"measurement": "inhibition at 1 µM", "setting": "[9]; [14]", "result": "13 ± 3", "unit": "%"}, {"measurement": "hTRPV1 % Activation (n = 3)", "setting": "[9]; tested at 100 nM", "result": "−1.8 ± 0.9", "unit": "%"}, {"measurement": "hTRPV1 % Activation (n = 3)", "setting": "[9]; tested at 1 μM", "result": "−0.7 ± 1.5", "unit": "%"}]}
